Values quoted from earlier work, collected in PMC12051155 (Molecular Metabolism, 2025).

- half-life in humans: 13 h
Compound: CCCCCCCCCCCCCCCC(=O)N[C@@H](CCC(=O)NCCCC[C@H](NC(=O)[C@H](C)NC(=O)[C@H](C)NC(=O)[C@H](CCC(N)=O)NC(=O)CNC(=O)[C@H](CCC(=O)O)NC(=O)[C@H](CC(C)C)NC(=O)[C@H](Cc1ccc(O)cc1)NC(=O)[C@H](CO)NC(=O)[C@H](CO)NC(=O)[C@@H](NC(=O)[C@H](CC(=O)O)NC(=O)[C@H](CO)NC(=O)[C@@H](NC(=O)[C@H](Cc1ccccc1)NC(=O)[C@@H](NC(=O)CNC(=O)[C@H](CCC(=O)O)NC(=O)[C@H](C)NC(=O)[C@@H](N)Cc1cnc[nH]1)[C@@H](C)O)[C@@H](C)O)C(C)C)C(=O)N[C@@H](CCC(=O)O)C(=O)N[C@@H](Cc1ccccc1)C(=O)N[C@H](C(=O)N[C@@H](C)C(=O)N[C@@H](Cc1c[nH]c2ccccc12)C(=O)N[C@@H](CC(C)C)C(=O)N[C@H](C(=O)N[C@@H](CCCNC(=N)N)C(=O)NCC(=O)N[C@@H](CCCNC(=N)N)C(=O)NCC(=O)O)C(C)C)[C@@H](C)CC)C(=O)O [liraglutide]
